Here are results for nine molecules from US11225675B2, “D-lactate dehydrogenase, engineered strain containing D-lactate dehydrogenase and construction method and use of engineered strain” (Shanghai Jiao Tong University, priority 2017, dated 2022).

A word on the Km: it is the concentration of substrate that gives half-maximal velocity. The kcat is the number of substrate molecules converted per active site and unit of time at saturation. In general, kcat/Km refers to the turnover number divided by the Michaelis constant.

Data set [1] has as its target T1, D-lactate dehydrogenases LdhTi (Thermodesulfatator indicus, UniProt F8A9V0). Put plainly: Enzymatic characteristic identification (substrate spectrum) of D-lactate dehydrogenase LdhTi, NADH/NAD at 340 nm. The data set is classed as biochemical. To be noted: for whether LdhTi catalyzes the substrate (in words) / Km / kcat: 50 mM phosphate buffer pH 7.0, 0.2 mM NADH or NAD+, 37° C.; for Km / kcat: substrate of purified LdhTi, “—” = enzyme has no activity for the substrate. As for the experimental part: A reaction system is consisting of: 50 mM phosphate buffer solution (pH 7.0), 0.2 mM NADH or NAD^+ as coenzyme, a suitable amount of D-lactate dehydrogenases LdhTi and substrates with different concentrations, reacted at 37° C. An enzyme activity determination method is to determine oxidization of NADH or reduction of NAD at ultraviolet wavelength of 340 nm, wherein one enzyme activity unit is defined as the enzyme amount needed for oxidizing or reducing 1 μmoL NADH or NAD in one minute.

Substrate in data set [2]: CC(=O)C(=O)O
Described as above. The data set is classed as biochemical, Thermodesulfatator indicus. To be noted: other: substrate of purified LdhTi, 50 mM phosphate buffer pH 7.0, 0.2 mM NADH or NAD+, 37° C., “—” = enzyme has no activity for the substrate.

Substrate in data set [3]: C[C@@H](O)C(=O)O
The data set is described as above. The data set is classed as biochemical, Thermodesulfatator indicus. As to conditions: other: substrate of purified LdhTi, 50 mM phosphate buffer pH 7.0, 0.2 mM NADH or NAD+, 37° C., “—” = enzyme has no activity for the substrate.

Substrate in data set [4]: O=C(O)C(=O)Cc1ccccc1
Put plainly: purified protein, by the assay type. As to conditions: other: substrate of purified LdhTi, 50 mM phosphate buffer pH 7.0, 0.2 mM NADH or NAD+, 37° C., “—” = enzyme has no activity for the substrate.

In data set [5] the target is T1, D-lactate dehydrogenases LdhTi. Briefly: Determination of the optimal reaction pH value of D-lactate dehydrogenases LdhTi. As to conditions: 37° C., 20 mM pyruvic acid, 0.2 mM NADH, pH range 3.0-11.0, FIG. 3. In kind it is biochemical. As for the experimental part: An enzyme activity determination method is to determine change in NADH at ultraviolet wavelength of 340 nm, and one enzyme activity unit is defined as the enzyme amount needed for oxidizing 1 μmoL of NADH in one minute. At 37° C., by using 20 mM pyruvic acid as a substrate and 0.2 mM NADH as a coenzyme, the change of enzyme activity of the D-lactate dehydrogenase within a pH range of 3.0-11.0 was determined. A buffer system is consisting of: 50 mM citric acid-sodium citrate buffer solution with pH of 3.0-7.0; 50 mM phosphate buffer solution with pH of 7.0-9.0; and 50 mM sodium carbonate-sodium hydrogen carbonate buffer solution with pH of 9.0-11.0. Experiments were repeated thrice. […] Relative enzyme activities in FIG. 3 are relative enzyme activities, which are obtained by: determining enzyme activities at different pH values, and correspondingly converting the enzyme activity values at other pH values on the basis that the highest value at pH 6.0 is 100%.

For data set [6] the target is unchanged. Put plainly: Determination of the optimal reaction temperature of D-lactate dehydrogenases LdhTi. The data set is classed as biochemical. As to conditions: 20 mM pyruvic acid, 0.2 mM NADH, 20 mM phosphate buffer pH 7.0, 30° C. to 100° C., FIG. 4. The method, then: An enzyme activity determination method is to determine change in NADH at ultraviolet wavelength of 340 nm, and one enzyme activity unit is defined as the enzyme amount needed for oxidizing 1 μmoL of NADH in one minute. Conditions for determination of the optimal reaction temperature of D-lactate dehydrogenases were as follows: 20 mM pyruvic acid as a substrate, 0.2 mM NADH as a coenzyme and 20 mM phosphate buffer solution (pH 7.0) system are adopted; and enzyme activities from 30° C. to 100° C. were respectively determined, and experiments were repeated thrice. […] Relative enzyme activities in FIG. 4 are relative enzyme activities, which are obtained by: determining enzyme activities at different temperature conditions, and correspondingly converting the enzyme activity values at other temperature conditions on the basis that the highest value at 70° C. is 100%.

As for `C[C@@H](O)C(=O)O` [D-lactic Acid, D-lactic acid], the “whether LdhTi catalyzes the substrate (in words)” value in data set [1] is on record as “can catalyze”.
Take `O=C(O)C(O)CO` (centres unmarked) [Glyceric Acid, glyceric acid]: in data set [1], the “whether LdhTi catalyzes the substrate (in words)” value was “no activity”.
As to `O=CC(=O)O` [Glyoxylic Acid, glyoxylic acid], in data set [1], the “whether LdhTi catalyzes the substrate (in words)” value was “can catalyze”, the Michaelis constant (Km) came out at 1760 ± 80 µM and the kcat came to 2.297 ± 0.0517 s⁻¹.
In the case of `O=C(O)C(=O)Cc1ccccc1` [Phenylpyruvic Acid, phenylpyruvic acid], the “whether LdhTi catalyzes the substrate (in words)” value in data set [1] is on record as “can catalyze”.
Take `CC(=O)C(=O)O` [Pyruvic Acid, pyruvic acid]: in data set [1], the “whether LdhTi catalyzes the substrate (in words)” value is “can catalyze”. The “catalytic efficiency of LdhTi for the substrate (in words)” value in data set [1] (compared among the tested substrates) is on record as “highest catalytic efficiency”.
`C[C@H](O)C(=O)O` [L-lactic Acid, L-lactic acid]: the “whether LdhTi catalyzes the substrate (in words)” value in data set [1] is listed as “no activity”.
Consider `O=C(O)CC(=O)C(=O)O` [Oxaloacetic Acid, oxaloacetic acid], for which, in data set [1], the “whether LdhTi catalyzes the substrate (in words)” value was “can catalyze”, the Michaelis-Menten constant (Km) amounted to 1320 ± 50 µM and the kcat is 4.473 ± 0.0983 s⁻¹.

B1: D-lactate dehydrogenases LdhTi (Thermodesulfatator indicus DSM 15286) (protein)
chain: MKVIFFSMHPYEEEFLGPILPSDWDVEMTPDFLDETTVEKAKGAQVVSLFVSDKADGPVLEALHSYGVGLLALRSAGYDHIDIETAKRLGIKVVNVPAYSPHAIADHTLAIMLALIRRLHRAHDKVRLGDFDLDGLMGFDLNGKVAGVIGLGKIGRLVATRLKAFGCKVLGYDPYIQPEIVENVDLDTLITQADIISIHCPLTRENFHMFNEETFKRMKPGAILVNTARGGLIDTKALLEALKSGKLGGAALDVYEYERGLFFKNHQKEGIKDPYLAQLLGLANVVLTGHQAFLTREAVKNIEETTVENILEWQKNPQAKLKNEI
In the case of B1, in data set [2], the Km is 50 ± 10 µM, the turnover number (kcat) amounted to 1.08 ± 0.0283 s⁻¹ and the specificity constant (kcat/Km) stood at 20700 ± 667 M⁻¹ s⁻¹. For the same molecule, in data set [3], the Km turned out to be 5410 ± 280 µM, the kcat came to 0.105 ± 0.005 s⁻¹ and the kcat/Km was determined as 19.3 ± 0.5 M⁻¹ s⁻¹. Also, in data set [4], the Michaelis-Menten constant (Km) came to 4580 ± 240 µM, the kcat amounted to 0.295 s⁻¹ and the catalytic efficiency (kcat/Km) is 64.3 M⁻¹ s⁻¹.

B2: LdhTi: D-lactate dehydrogenase from Thermodesulfatator indicus DSM 15286, amino acid sequence SEQ ID No. 1, expressed in E. coli and purified (protein)
chain: B1 chain
modifications: Thermodesulfatator indicus DSM 15286
B2: the “optimal reaction pH value” in data set [5] stood at 6.0. The molecule further showed an optimal reaction temperature in data set [6] of 70 °C.
